# Assay results reported in publication PMC11604427 (Frontiers in Pharmacology, 2024).
# How the values were obtained:
# [1] = molecular target: T1, Human recombinant PKMYT1 enzyme (Homo sapiens, UniProt Q99640); assay: ADP-GLO enzyme inhibition assay; type: biochemical
# T1 construct: purchased Abcam
# T1 sequence (Q99640 1-499): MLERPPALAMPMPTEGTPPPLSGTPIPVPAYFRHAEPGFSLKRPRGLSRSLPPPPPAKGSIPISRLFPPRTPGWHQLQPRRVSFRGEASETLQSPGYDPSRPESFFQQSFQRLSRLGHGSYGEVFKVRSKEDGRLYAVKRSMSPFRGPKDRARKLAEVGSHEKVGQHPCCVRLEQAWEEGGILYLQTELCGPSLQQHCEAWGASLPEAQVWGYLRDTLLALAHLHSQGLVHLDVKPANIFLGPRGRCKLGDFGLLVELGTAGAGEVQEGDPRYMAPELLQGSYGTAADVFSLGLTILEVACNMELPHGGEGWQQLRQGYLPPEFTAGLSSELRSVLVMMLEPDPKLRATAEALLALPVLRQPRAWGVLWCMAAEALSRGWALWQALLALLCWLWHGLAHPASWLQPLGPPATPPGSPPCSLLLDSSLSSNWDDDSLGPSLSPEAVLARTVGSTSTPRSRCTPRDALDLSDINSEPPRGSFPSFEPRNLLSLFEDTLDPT
# Description: The ADP-GLO™ kinase assay kit, purchased from Promega Corporation (Madison, WI, United States), included the ADP-GLO reagent, the kinase assay reagent, and ultra-pure ATP and ADP. PKMYT1 enzyme was dissolved in 5 μL of freshly prepared enzyme assay buffer containing 70 mM Hepes, 3 mM MgCl2, 3 mM MnCl2, 50 μg/mL PEG20000, 3 μM sodium orthovanadate, 1.2 mM dithiothreitol, and then injected into 384-well plates. […] The enzymatic reaction was initiated by adding 5 μL of ATP, followed by a 60-min incubation at 30°C. Subsequently, 15 μL of ADP-GLO reagent was added, and the incubation was continued for an additional 40 min at room temperature. Then, 30 μL of kinase detection reagent was introduced, and the samples were incubated for a final 30 min. Luminescence measurements were taken using an Envision plate reader (PerkinElmer). The IC50 value of each tested compound was calculated by GraphPad Prism software.
# HCC cell lines = assay: MTT assay, all HCC cell lines; type: cell-based; details: Homo sapiens, range over HepG2, Hep3B, Huh7, SNU449, HepG2/MDR, 48 h, read-out: IC50 values against all HCC cell lines
# Description: The MTT assay was conducted to evaluate the inhibitory impact of PKHD-5 on HCC cells, HepG2/ADR cells, and normal liver cells ([Ding et al., 2020]). Cells at a density of 4×10^3 cells/well were inoculated into 96-well plates for overnight culture at 37°C. The cells were treated with varying concentrations of the test compounds and incubated for 48 h. Then, 100 μL of a 0.5 mg/mL MTT solution was pipetted into each well, and the incubation was prolonged for 4 h, resulting in the formation of a purple precipitate. Afterward, 200 μL of DMSO was added to each well, and the plate was vortexed for 10 min. The absorbance at 570 nm was determined with a Synergy 4 microplate reader (BioTek, United States). Each experiment was performed three times under the same conditions.
# HepG2 cells = assay: Western blot of apoptosis markers; type: cell-based, human
# Description: To evaluate the protein levels of apoptosis-associated markers, we performed Western blot analysis on cell extracts as previously reported ([Hao et al., 2018]). Briefly, equal amounts of protein were subjected to SDS-PAGE and then transferred onto a polyvinylidene fluoride (PVDF) membrane. The membrane was incubated in a blocking solution consisting of 5% non-fat dry milk in Tris-buffered saline with Tween-20 (TBS-T) for 3 h at room temperature. Subsequently, the membrane was probed with primary antibodies specific to cleaved PARP and cleaved caspase-3 overnight at 4°C. After washing, the membrane was incubated with horseradish peroxidase-conjugated secondary antibodies for 1 h at room temperature. Immunoreactive bands were visualized using a chemiluminescent substrate (ECL, Pierce Technology). The relative expression levels of cleaved PARP and cleaved caspase-3 were quantified.
# HepG2 xenograft = assay: HepG2 bearing xenograft model; type: in vivo, BALB/c nude mice; details: versus vehicle
# Excerpt: A previously reported human tumor xenograft model was established to evaluate the anti-tumor effects of PKHD-5 in vivo ([Zhou et al., 2022]). All procedures involving animals were granted approval by the Ethics Committee at China Pharmaceutical University. A total of 20 male BALB/c nude mice (6 weeks old) were purchased from Changzhou Cave Experimental Animal Co., Ltd. (Changzhou, China). Mice were maintained under specific pathogen-free (SPF) conditions, with environmental parameters meticulously controlled at a temperature of 25°C ± 2°C, relative humidity maintained at 50% ± 5%, and an established diurnal cycle of 12 h for both light and darkness. During the experiment, all mice were free to access water and food. After 10 days of adaptive feeding, HepG2 cells (1×10^7 cells) were subcutaneously injected into mice. Once the tumors reached a size of 90–120 mm^3, the nude mice were randomly assigned to either the vehicle control group or the group treated with PKHD-5 (n = 5). Furthermore, the treatment was divided into three dose-based groups of 1, 5, and 10 mg/kg. The tumor volume was measured by a digital caliper for a total of 18 days and calculated by the following formula: (c×c×d)/2, where c represents the minimum diameter of the tumor and d indicates the maximum diameter. In addition, the body weight of the mice was measured and recorded every 3 days.
# In vivo pharmacokinetics = details: BALB/c, mouse, plasma, mice, 5 mg/kg
# Description: In the pharmacokinetic (PK) assessment of PKHD-5, BALB/c mice were utilized as the experimental model. PKHD-5 was administered either intraperitoneally or orally at a dosage of 5 mg/kg. Serial blood samples (0.25 mL) were collected at 0.25, 0.5, 1, 2, 4, 8, 16, and 24 h post-treatment. Each plasma sample (50 μL) underwent protein precipitation with a 1:1 mixture of methanol and acetonitrile (200 μL) and an internal standard. After vortexing for 5 min, the samples were centrifuged at 12,000 rpm for 5 min, yielding a supernatant (60 μL) for LC-MS/MS analysis. The data obtained were analyzed using Phoenix software to determine the PK profile of PKHD-5 in the mouse model.
smiles,measurement,setting,value
Cc1ccc(O)c(C)c1-n1c(N)c(C(N)=O)c2cc(CCCCCC(=O)NO)c(C)nc21 [PKHD-5],IC50,[1]; ADP-GLO method,3.15 ± 0.21 nM
same,fold inhibition of PKMYT1 compared with the control compound 39,[1]; ratio of IC50 values versus compound 39,4.91 fold
same,IC50,HCC cell lines,190 to 920 nM
same,levels of cleaved PARP,HepG2 cells,increased levels
same,levels of cleaved caspase-3,HepG2 cells,increased levels
same,body weight changes in mice,HepG2 xenograft; HepG2 xenograft mice,did not exhibit any significant disparities
same,rate at which tumors grew (tumor volume),"HepG2 xenograft; HepG2 xenograft, intraperitoneal 1, 5, 10 mg/kg, 18 days",considerably lower
same,AUC,In vivo pharmacokinetics; IP,15 µM·h
same,Cmax,In vivo pharmacokinetics; IP,3.26 µM
same,bioavailability,In vivo pharmacokinetics; IP,82%
same,half-life,In vivo pharmacokinetics; IP,4.75 h
same,AUC,In vivo pharmacokinetics; PO,12.2 µM·h
same,Cmax,In vivo pharmacokinetics; PO,2.92 µM
same,bioavailability,In vivo pharmacokinetics; PO,66%
same,half-life,In vivo pharmacokinetics; PO,3.93 h
